Laboratory results reported in US10570184B2, “GLP-1/glucagon receptor co-agonists for medical use” (Novo Nordisk A/S, priority 2014, dated 2020).
Starred links: 1 amine or outer side, 2 acyl side, 3 side chain; linkers in the order of their positions; H or OH if unused. Non-standard residues stand in square brackets, D forms with d. Residues, ends and D or L forms follow the SMILES beside them. Groups on a side chain read outwards from the residue. *: point of attachment. C18 diacid = O=C(O)CCCCCCCCCCCCCCCCC(=O)*; γGlu = O=C(O)[C@H](CCC(=O)[*:2])N[*:1]; Ac4c = NC1(C(=O)O)CCC1; AEEA = NCCOCCOCC(=O)O; Aib = CC(C)(N)C(=O)O

What was measured:
[1] = Assay (III) ThT fibrillation assay for physical stability; type: physicochemical; settings: 250 μM in 10 mM HEPES buffer, 37° C., shaking 960 rpm
Procedure, shortened: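 Glucagon derivative at 250 μM in 10 mM HEPES pH 7.5 with 1 μM ThT was incubated at 37 °C under 960 rpm orbital shaking. Fluorescence (ex 444/em 485 nm) was read every 20 min and fitted for lag time (t0−2τ) and kapp (1/τ). Recovery was soluble peptide after centrifugation/filtration, by RP-HPLC, as percent of initial.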

[2] = molecular target: T1, human GLP-1 receptor (Homo sapiens, UniProt P43220); test: Assay (I)(a) GLP-1 receptor activation, CRE luciferase reporter gene assay in BHK cells; type: cell-based; settings: without presence of serum albumin; read-out: GLP-1R EC50 (pM) [Assay (I)(a)]
T1 construct: expressed in transfected cells; host or cells: membranes of BHK cells (parent BHKTS13), clone FCW467-12A
T1 sequence (P43220 24-463): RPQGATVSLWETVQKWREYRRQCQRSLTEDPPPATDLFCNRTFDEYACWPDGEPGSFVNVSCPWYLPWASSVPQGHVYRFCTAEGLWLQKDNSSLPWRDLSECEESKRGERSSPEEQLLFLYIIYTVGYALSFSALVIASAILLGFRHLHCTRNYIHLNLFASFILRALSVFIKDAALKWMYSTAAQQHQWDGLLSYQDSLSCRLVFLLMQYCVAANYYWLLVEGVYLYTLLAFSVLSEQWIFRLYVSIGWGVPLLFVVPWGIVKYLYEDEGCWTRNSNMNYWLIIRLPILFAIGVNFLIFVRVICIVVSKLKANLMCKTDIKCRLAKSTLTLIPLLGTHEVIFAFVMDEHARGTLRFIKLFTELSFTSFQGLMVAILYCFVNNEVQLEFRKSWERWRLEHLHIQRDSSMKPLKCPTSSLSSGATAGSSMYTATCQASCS
Procedure, shortened: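 Stable BHK clone expressing human GLP-1 receptor with CRE-driven firefly luciferase, 5×10EE3 cells/well in medium with 2% ovalbumin and 0.2% Pluronic F-68. Compounds at 1×10EE-13 to 1×10EE-6 M final, 3 h at 37° C.; luminescence read, EC50 (pM) from four-parameter fit.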

| ThT Assay Lag time (h) [Assay (III), pH 7.5] [1] | EC50 [2] | Structure (SMILES) |
| --- | --- | --- |
| 5.0 h | 4 pM | CC[C@H](C)[C@H](NC(=O)[C@H](CC(C)C)NC(=O)[C@H](Cc1c[nH]c2ccccc12)NC(=O)[C@H](CCC(N)=O)NC(=O)[C@@H](NC(=O)[C@H](Cc1ccccc1)NC(=O)[C@H](CCC(=O)O)NC(=O)[C@H](CCCNC(=N)N)NC(=O)[C@H](C)NC(=O)[C@H](CCCNC(=N)N)NC(=O)[C@H](CCCNC(=N)N)NC(=O)[C@H](CO)NC(=O)[C@H](CCC(=O)O)NC(=O)[C@H](CC(C)C)NC(=O)[C@H](Cc1ccc(O)cc1)NC(=O)[C@H](CCCCN)NC(=O)[C@H](CO)NC(=O)[C@H](CC(C)C)NC(=O)[C@H](CC(=O)O)NC(=O)[C@H](CO)NC(=O)[C@@H](NC(=O)[C@H](Cc1ccccc1)NC(=O)[C@@H](NC(=O)CNC(=O)[C@H](CCC(N)=O)NC(=O)C1(NC(=O)[C@@H](N)Cc2c[nH]cn2)CCC1)[C@@H](C)O)[C@@H](C)O)C(C)C)C(=O)N[C@@H](CCCCNC(=O)COCCOCCNC(=O)COCCOCCNC(=O)CC[C@H](NC(=O)CC[C@H](NC(=O)CCCCCCCCCCCCCCCCC(=O)O)C(=O)O)C(=O)O)C(=O)N[C@H](C(N)=O)[C@@H](C)O [Chem. 18, N^ε28-[2-[2-[2-[[2-[2-[2-[[(4S)-4-carboxy-4-[[(4S)-4-carboxy-4-(17-carboxyheptadecanoylamino)butanoyl]amino]butanoyl]amino]ethoxy]ethoxy]acetyl]amino]ethoxy]ethoxy]acetyl]-[Acb2,Leu10,Glu15,Arg20,Glu21,Ile27,Lys28]-Glucagon amide] (H-H[Ac4c]QGTFTSDLSKYLESRRAREFVQWLIK([AEEA-AEEA-γGlu-γGlu-C18 diacid])T-NH2) |
| 12.3 h | 4 pM | CC[C@H](C)[C@H](NC(=O)[C@H](CC(C)C)NC(=O)[C@H](Cc1c[nH]c2ccccc12)NC(=O)[C@H](CCC(N)=O)NC(=O)[C@@H](NC(=O)[C@H](Cc1ccccc1)NC(=O)[C@H](CCC(=O)O)NC(=O)[C@H](CCCNC(=N)N)NC(=O)[C@H](C)NC(=O)[C@H](CCCNC(=N)N)NC(=O)[C@H](CCCNC(=N)N)NC(=O)[C@H](CO)NC(=O)[C@H](CCC(=O)O)NC(=O)[C@H](CC(C)C)NC(=O)[C@H](Cc1ccc(O)cc1)NC(=O)[C@H](CCCNC(=N)N)NC(=O)[C@H](CO)NC(=O)[C@H](CC(C)C)NC(=O)[C@H](CC(=O)O)NC(=O)[C@H](CO)NC(=O)[C@@H](NC(=O)[C@H](Cc1ccccc1)NC(=O)[C@@H](NC(=O)CNC(=O)[C@H](CCC(N)=O)NC(=O)C1(NC(=O)[C@@H](N)Cc2c[nH]cn2)CCC1)[C@@H](C)O)[C@@H](C)O)C(C)C)C(=O)N[C@@H](CCCCNC(=O)CC[C@H](NC(=O)CC[C@H](NC(=O)COCCOCCNC(=O)COCCOCCNC(=O)CC[C@H](NC(=O)CC[C@H](NC(=O)CCCCCCCCCCCCCCCCC(=O)O)C(=O)O)C(=O)O)C(=O)O)C(=O)O)C(=O)N[C@H](C(N)=O)[C@@H](C)O [Chem. 17, N^ε28-[(4S)-4-carboxy-4-[[(4S)-4-carboxy-4-[[2-[2 [2-[[2-[2-[2-[[(4S)-4-carboxy-4-[[(4S)-4-carboxy-4-(17-carboxyheptadecanoylamino)butanoyl]amino]butanoyl]amino]ethoxy]ethoxy]acetyl]amino]ethoxy]ethoxy]acetyl]amino]butanoyl]amino]butanoyl]-[Acb2,Leu10,Arg12,Glu15,Arg20,Glu21,Ile27,Lys28]-Glucagon amide] (H-H[Ac4c]QGTFTSDLSRYLESRRAREFVQWLIK([γGlu-γGlu-AEEA-AEEA-γGlu-γGlu-C18 diacid])T-NH2) |
| 45.0 h | 4 pM | CC[C@H](C)[C@H](NC(=O)[C@H](CC(C)C)NC(=O)[C@H](Cc1c[nH]c2ccccc12)NC(=O)[C@H](CCC(N)=O)NC(=O)[C@@H](NC(=O)[C@H](Cc1ccccc1)NC(=O)[C@H](CC(=O)O)NC(=O)[C@H](CCCNC(=N)N)NC(=O)[C@H](C)NC(=O)[C@H](CCCNC(=N)N)NC(=O)[C@H](CCCNC(=N)N)NC(=O)[C@H](C)NC(=O)[C@H](CC(=O)O)NC(=O)[C@H](CC(C)C)NC(=O)[C@H](Cc1ccc(O)cc1)NC(=O)[C@H](CCCCN)NC(=O)[C@H](CO)NC(=O)[C@H](CC(C)C)NC(=O)[C@H](CC(=O)O)NC(=O)[C@H](CO)NC(=O)[C@@H](NC(=O)[C@H](Cc1ccccc1)NC(=O)[C@@H](NC(=O)CNC(=O)[C@H](CCC(N)=O)NC(=O)C(C)(C)NC(=O)[C@@H](N)Cc1c[nH]cn1)[C@@H](C)O)[C@@H](C)O)C(C)C)C(=O)N[C@@H](CC(N)=O)C(=O)N[C@@H](CCCCNC(=O)CC[C@H](NC(=O)CC[C@H](NC(=O)COCCOCCNC(=O)COCCOCCNC(=O)CC[C@H](NC(=O)CCCCCCCCCCCCCCCCC(=O)O)C(=O)O)C(=O)O)C(=O)O)C(N)=O [Chem. 20, N^ε29-[(4S)-4-carboxy-4-[[(4S)-4-carboxy-4-[[2-[2-[2-[[2-[2-[2-[[(4S)-4-carboxy-4-(17-carboxyheptadecanoylamino)butanoyl]amino]ethoxy]ethoxy]acetyl]amino]ethoxy]ethoxy]acetyl]amino]butanoyl]amino]butanoyl]-[Aib2,Leu10,Ala16,Arg20,Ile27,Lys29]-Glucagon amide] (H-H[Aib]QGTFTSDLSKYLDARRARDFVQWLINK([γGlu-γGlu-AEEA-AEEA-γGlu-C18 diacid])-NH2; N-terminus assumed) |
| 45.0 h | 3 pM | CC[C@H](C)[C@H](NC(=O)[C@H](CC(C)C)NC(=O)[C@H](Cc1c[nH]c2ccccc12)NC(=O)[C@H](C)NC(=O)[C@@H](NC(=O)[C@H](Cc1ccccc1)NC(=O)[C@H](CC(=O)O)NC(=O)[C@H](CCCNC(=N)N)NC(=O)[C@H](C)NC(=O)[C@H](CCCNC(=N)N)NC(=O)[C@H](CCCNC(=N)N)NC(=O)[C@H](CC(C)C)NC(=O)[C@H](CC(=O)O)NC(=O)[C@H](CC(C)C)NC(=O)[C@H](Cc1ccc(O)cc1)NC(=O)[C@H](CCCCN)NC(=O)[C@H](CO)NC(=O)[C@H](CC(C)C)NC(=O)[C@H](CC(=O)O)NC(=O)[C@H](CO)NC(=O)[C@@H](NC(=O)[C@H](Cc1ccccc1)NC(=O)[C@@H](NC(=O)CNC(=O)[C@H](CCC(N)=O)NC(=O)C(C)(C)NC(=O)[C@@H](N)Cc1c[nH]cn1)[C@@H](C)O)[C@@H](C)O)C(C)C)C(=O)N[C@@H](CC(N)=O)C(=O)N[C@@H](CCCCNC(=O)CC[C@H](NC(=O)CC[C@H](NC(=O)COCCOCCNC(=O)COCCOCCNC(=O)CC[C@H](NC(=O)CCCCCCCCCCCCCCCCC(=O)O)C(=O)O)C(=O)O)C(=O)O)C(N)=O [Chem. 24, N^ε29-[(4S)-4-carboxy-4-[[(4S)-4-carboxy-4-[[2-[2-[2-[[2-[2-[2-[[(4S)-4-carboxy-4-(17-carboxyheptadecanoylamino)butanoyl]amino]ethoxy]ethoxy]acetyl]amino]ethoxy]ethoxy]acetyl]amino]butanoyl]amino]butanoyl]-[Aib2,Leu10,Leu16,Arg20,Ala24,Ile27,Lys29]-Glucagon amide] (H-H[Aib]QGTFTSDLSKYLDLRRARDFVAWLINK([γGlu-γGlu-AEEA-AEEA-γGlu-C18 diacid])-NH2; N-terminus assumed) |
| 45.0 h | 3 pM | CC[C@H](C)[C@H](NC(=O)[C@H](CC(C)C)NC(=O)[C@H](Cc1c[nH]c2ccccc12)NC(=O)[C@H](C)NC(=O)[C@@H](NC(=O)[C@H](Cc1ccccc1)NC(=O)[C@H](CC(=O)O)NC(=O)[C@H](CCC(N)=O)NC(=O)[C@H](C)NC(=O)[C@H](CCCNC(=N)N)NC(=O)[C@H](CCCNC(=N)N)NC(=O)[C@H](CO)NC(=O)[C@H](CCC(=O)O)NC(=O)[C@H](CC(C)C)NC(=O)[C@H](Cc1ccc(O)cc1)NC(=O)[C@H](CCCCN)NC(=O)[C@H](CO)NC(=O)[C@H](Cc1ccc(O)cc1)NC(=O)[C@H](CC(=O)O)NC(=O)[C@H](CO)NC(=O)[C@@H](NC(=O)[C@H](Cc1ccccc1)NC(=O)[C@@H](NC(=O)CNC(=O)[C@H](CCC(N)=O)NC(=O)C(C)(C)NC(=O)[C@@H](N)Cc1c[nH]cn1)[C@@H](C)O)[C@@H](C)O)C(C)C)C(=O)N[C@@H](CCCCNC(=O)CC[C@H](NC(=O)CC[C@H](NC(=O)COCCOCCNC(=O)COCCOCCNC(=O)CC[C@H](NC(=O)CCCCCCCCCCCCCCCCC(=O)O)C(=O)O)C(=O)O)C(=O)O)C(=O)N[C@H](C(N)=O)[C@@H](C)O [Chem. 34, N^ε28-[(4S)-4-carboxy-4-[[(4S)-4-carboxy-4-[[2-[2-[2-[[2-[2-[2-[[(4S)-4-carboxy-4-(17-carboxyheptadecanoylamino)butanoyl]amino]ethoxy]ethoxy]acetyl]amino]ethoxy]ethoxy]acetyl]amino]butanoyl]amino]butanoyl]-[Aib2,Glu15,Ala24,Ile27,Lys28]-Glucagon amide] (H-H[Aib]QGTFTSDYSKYLESRRAQDFVAWLIK([γGlu-γGlu-AEEA-AEEA-γGlu-C18 diacid])T-NH2) |
